According to ChEMBL document CHEMBL1134299, “Conformationally constrained analogues of diacylglycerol. 18. The incorporation of a hydroxamate moiety into diacylglycerol-lactones reduces lipophilicity and helps discriminate between sn-1 and sn-2 binding modes to protein kinase C (PK-C). Implications for isozyme specificity” (J Med Chem, 2001):

Key:
[1] = Partition coefficient (logP); format: physicochemical; settings: octanol/water
[2] = target: Protein kinase C alpha type (Homo sapiens, UniProt P17252); assay: Displacement of [20-3H]-PDBU ligand from recombinant protein kinase C (baculovirus)

Compound	logP [1]	Ki [2] [nM]
CC(C)CC(C/C=C1\CC(CO)(CN(O)C(=O)C(C)(C)C)OC1=O)CC(C)C (stereo not given)	3.58	4.81
CC(C)CC(C/C=C1\CC(CO)(COC(=O)C(C)(C)C)OC1=O)CC(C)C (stereo not given)	5.03	4.51
CC(C)C(C/C=C1\CC(CO)(COC(=O)CC(C(C)C)C(C)C)OC1=O)C(C)C (stereo not given)	5.89	–
CC(C)CC(C/C=C1/CC(CO)(CN(O)C(=O)C(C)(C)C)OC1=O)CC(C)C (stereo not given)	3.58	5.42
CC(C)C(C/C=C1/CC(CO)(COC(=O)C(C)(C)C)OC1=O)C(C)C (stereo not given)	–	8.32
CC(C)C(C/C=C1/CC(CO)(COC(=O)CC(C(C)C)C(C)C)OC1=O)C(C)C (stereo not given)	5.89	–
CC(C)CC(C/C=C1\CC(CO)(CNC(=O)C(C)(C)C)OC1=O)CC(C)C (stereo not given)	3.95	1260
CC(C)CC(C/C=C1\CC(CO)(COC(=O)C(C)(C)C)N(O)C1=O)CC(C)C (stereo not given)	–	10400
CC(C)CC(C/C=C1/CC(CO)(COC(=O)CC(C(C)C)C(C)C)OC1=O)CC(C)C (stereo not given)	6.88	6.87
CC(C)CC(C/C=C1\CC(CO)(COC(=O)C(C)(C)C)NC1=O)CC(C)C (stereo not given)	5.01	4840
CC(C)CC(C/C=C1/CC(CO)(COC(=O)C(C)(C)C)OC1=O)CC(C)C (stereo not given)	5.03	2.9
CC(C)CC(C/C=C1/CC(CO)(CNC(=O)C(C)(C)C)OC1=O)CC(C)C (stereo not given)	3.95	430
CC(C)CC(C/C=C1/CC(CO)(COC(=O)C(C)(C)C)NC1=O)CC(C)C (stereo not given)	5.01	4330
CC(C)CC(C/C=C1\CC(CO)(COC(=O)CC(C(C)C)C(C)C)OC1=O)CC(C)C (stereo not given)	6.88	4.46
CC(C)C(C/C=C1\CC(CO)(COC(=O)C(C)(C)C)OC1=O)C(C)C (stereo not given)	–	11.2
